Here are results for 11 molecules from patent US12441768B2, “Compositions and methods for treating endometriosis” (EndoMet Biosciences, Inc., priority 2018, dated 2025).

Where a SMILES comes first, the peptide text is derived from it.

What is called Kd is the concentration at which binding is half-saturated. By viability is commonly meant a read-out of living cells in per cent, often relative to untreated cells. As a reminder, the EC50 is the concentration at which the effect is half-maximal. A low value points to greater potency.

In data set [1] the target is T1, β-catenin (Homo sapiens, UniProt P35222).
T1 sequence (P35222 1-781): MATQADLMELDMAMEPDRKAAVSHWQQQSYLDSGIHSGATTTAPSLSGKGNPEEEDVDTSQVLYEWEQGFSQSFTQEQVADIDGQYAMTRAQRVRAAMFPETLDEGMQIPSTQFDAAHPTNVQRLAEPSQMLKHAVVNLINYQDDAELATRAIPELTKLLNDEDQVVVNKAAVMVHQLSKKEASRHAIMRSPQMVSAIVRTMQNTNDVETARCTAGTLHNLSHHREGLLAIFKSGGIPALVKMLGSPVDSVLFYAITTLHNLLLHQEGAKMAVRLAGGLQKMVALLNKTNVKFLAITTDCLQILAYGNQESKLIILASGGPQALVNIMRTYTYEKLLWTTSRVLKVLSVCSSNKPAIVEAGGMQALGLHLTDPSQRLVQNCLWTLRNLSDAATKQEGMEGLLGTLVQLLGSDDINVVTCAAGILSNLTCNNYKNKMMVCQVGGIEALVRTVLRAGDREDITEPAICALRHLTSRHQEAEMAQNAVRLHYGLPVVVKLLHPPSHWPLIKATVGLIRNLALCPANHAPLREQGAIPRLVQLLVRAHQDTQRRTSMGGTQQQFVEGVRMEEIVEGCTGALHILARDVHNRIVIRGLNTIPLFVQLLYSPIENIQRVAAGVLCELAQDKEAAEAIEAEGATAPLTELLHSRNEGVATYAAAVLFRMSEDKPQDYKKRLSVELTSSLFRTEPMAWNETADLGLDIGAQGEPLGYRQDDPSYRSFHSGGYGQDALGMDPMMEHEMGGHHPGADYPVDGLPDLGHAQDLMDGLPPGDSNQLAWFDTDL
As to the kind of experiment: KD50 measurement using competitive fluorescence polarization (FP) with labelled TCF4. The following applies: fluorescence polarization, β-catenin; for Kd: read-out: β-Cat FP KD. It counts as binding. In short, it runs like this: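 5 nM labelled TCF4 was combined with 100 nM β-catenin at room temperature, then inhibitor was titrated in serial dilutions from 10 nM to 30 uM. Polarization was read at excitation 470 nm, emission 520 nm; displacement lowers the signal. Three independent experiments.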

The nature of data set [2]: in vitro. Conditions: % Viability non-Wnt responsive cells.
In data set [3] the target is Wnt-responsive promoter (TCF/LEF). The data set is described as follows: Wnt-dependent luciferase reporter assay. It counts as cell-based, murine. The method in brief: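 Murine 3T3 fibroblasts carrying a TCF/LEF-driven luciferase reporter, stimulated with Wnt3a in the presence of increasing peptide concentrations or vehicle. Luminescence inhibition gave EC50 values in uM.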

For the molecule `CC[C@H](C)[C@H](NC(=O)[C@H](CC(C)C)NC(=O)[C@H](Cc1ccccc1)NC(=O)[C@H](Cc1c[nH]c2ccccc12)NC(=O)[C@H](CCSC)NC(=O)[C@H](CCCNC(=N)N)NC(=O)[C@H](CO)NC(=O)[C@@H](N)CCSC)C(=O)N[C@@H](CO)C(=O)N[C@@H](Cc1ccccc1)C(=O)N[C@@H](Cc1c[nH]c2ccccc12)C(=O)N[C@@H](CCSC)C(=O)NCC(=O)O` [compound 14] (H-MSRMWFLISFWMG-OH), in data set [1], the Kd was greater than 30 µM. In addition, in data set [2], the viability was determined as 98%. This molecule gave an EC50 in data set [3] of less than 7.5 µM.
Consider `CC[C@H](C)[C@H](NC(=O)[C@H](CC(C)C)NC(=O)[C@H](Cc1ccccc1)NC(=O)[C@H](Cc1c[nH]c2ccccc12)NC(=O)[C@H](CCSC)NC(=O)[C@H](CCCNC(=N)N)NC(=O)[C@@H](NC(=O)[C@@H](N)CCSC)[C@@H](C)CC)C(=O)N[C@@H](CO)C(=O)N[C@@H](Cc1ccccc1)C(=O)N[C@@H](Cc1c[nH]c2ccccc12)C(=O)NCC(=O)O` [compound 15] (H-MIRMWFLISFWG-OH), for which the viability in data set [2] stood at 103%. Also, the half-maximal effective concentration (EC50) in data set [3] was less than 7.5 µM.
In the case of `CC[C@H](C)[C@H](NC(=O)[C@H](CC(C)C)NC(=O)[C@H](Cc1ccccc1)NC(=O)[C@H](Cc1c[nH]c2ccccc12)NC(=O)[C@H](CCSC)NC(=O)[C@H](CCCNC(=N)N)NC(=O)[C@H](CO)NC(=O)[C@@H](N)CCSC)C(=O)N[C@@H](CO)C(=O)N[C@@H](Cc1ccccc1)C(=O)N[C@@H](Cc1c[nH]c2ccccc12)C(=O)N(C)[C@@H](C)C(=O)NCC(=O)O` [compound 16] (HELM PEPTIDE1{M.S.R.M.W.F.L.I.S.F.W.[meA].G}$$$$V2.0), the Kd in data set [1] was greater than 30 µM. The viability in data set [2] was determined as 92%. The molecule also showed an EC50 in data set [3] of 15 to 22.5 µM.
`CC[C@H](C)[C@H](NC(=O)[C@H](CC(C)C)NC(=O)[C@H](Cc1ccccc1)NC(=O)[C@H](Cc1c[nH]c2ccccc12)NC(=O)[C@@H](N)CCSC)C(=O)N[C@@H](CO)C(=O)N[C@@H](Cc1ccccc1)C(=O)N[C@@H](Cc1c[nH]c2ccccc12)C(=O)NCC(=O)O` [compound 17] (H-MWFLISFWG-OH): in data set [1], the “β-Cat FP Hill slope” value is recorded as 1.66 and the dissociation constant (Kd) was in the range of 0.4 to 1 µM. Also, in data set [2], the viability was found to be 98%. This molecule displayed an EC50 in data set [3] of less than 7.5 µM.
With `CC[C@H](C)[C@@H]1NC(=O)[C@H](CO)NC(=O)[C@H](CCC(=O)O)NC(=O)[C@H](C)N(C)C(=O)[C@@H](N)CCCCNC(=O)CNC(=O)[C@H](Cc2c[nH]c3ccccc23)NC(=O)[C@H](C(C)C)NC(=O)[C@H](CCCNC(=N)N)NC(=O)[C@H](CCC(N)=O)NC(=O)[C@H](C(C)C)NC(=O)[C@H](Cc2c[nH]cn2)NC(=O)[C@H](CCC(=O)O)NC(=O)[C@H](CC(=O)O)NC(=O)[C@H](CC(C)C)NC1=O` [compound 18] (HELM PEPTIDE1{K.[meA].E.S.I.L.D.E.H.V.Q.R.V.W.G}$PEPTIDE1,PEPTIDE1,1:R3-15:R2$$$V2.0; bridges inferred), the Kd in data set [1] is greater than 30 µM. Besides, in data set [2], the viability was 90.2%. The EC50 in data set [3] was greater than 30 µM.
With `CC[C@H](C)[C@@H]1NC(=O)[C@H](CO)NC(=O)[C@H](CCC(N)=O)NC(=O)[C@H](C)N(C)C(=O)[C@@H](N)CCCCNC(=O)CNC(=O)[C@H](Cc2c[nH]c3ccccc23)NC(=O)[C@H](C(C)C)NC(=O)[C@H](CCCNC(=N)N)NC(=O)[C@H](CCC(N)=O)NC(=O)[C@H](C(C)C)NC(=O)[C@H](Cc2c[nH]cn2)NC(=O)[C@H](CCC(=O)O)NC(=O)[C@H](CC(=O)O)NC(=O)[C@H](CC(C)C)NC1=O` [compound 19] (HELM PEPTIDE1{K.[meA].Q.S.I.L.D.E.H.V.Q.R.V.W.G}$PEPTIDE1,PEPTIDE1,1:R3-15:R2$$$V2.0; bridges inferred), the Kd in data set [1] was greater than 30 µM. Besides, the viability in data set [2] is 104%. The molecule further had a concentration for a half-maximal effect (EC50) in data set [3] greater than 30 µM.
`CC[C@H](C)[C@H](NC(=O)[C@H](CO)NC(=O)[C@H](CCC(=O)O)NC(=O)[C@H](Cc1c[nH]c2ccccc12)NC(=O)[C@@H](N)CCSC)C(=O)N[C@@H](CC(C)C)C(=O)N[C@@H](CC(=O)O)C(=O)N[C@@H](CCC(=O)O)C(=O)N[C@@H](Cc1c[nH]cn1)C(=O)N[C@H](C(=O)N[C@@H](CCC(N)=O)C(=O)N[C@@H](CCCNC(=N)N)C(=O)N[C@H](C(=O)N[C@@H](Cc1c[nH]c2ccccc12)C(=O)NCC(=O)O)C(C)C)C(C)C` [compound 22] (H-MWESILDEHVQRVWG-OH): the viability in data set [2] amounted to 99.6%. This molecule also came in with an EC50 in data set [3] greater than 30 µM.
For the molecule `CC[C@H](C)[C@@H]1NC(=O)[C@H](CC(C)C)NC(=O)[C@H](CC(C)C)NC(=O)[C@H](Cc2c[nH]c3ccccc23)NC(=O)[C@H](CCSC)NC(=O)[C@H](CCCNC(=N)N)NC(=O)[C@H](CO)NC(=O)[C@H](CCSC)NC(=O)[C@@H](N)CCCCNC(=O)CNC(=O)[C@H](Cc2c[nH]c3ccccc23)NC(=O)[C@H](Cc2ccccc2)NC(=O)[C@H](CO)NC1=O` [compound 25] (HELM PEPTIDE1{K.M.S.R.M.W.L.L.I.S.F.W.G}$PEPTIDE1,PEPTIDE1,1:R3-13:R2$$$V2.0; bridges inferred), in data set [2], the viability came out at 97%. In data set [3], the EC50 lay within 7.5 to 15 µM.
Regarding `CC[C@H](C)[C@@H]1NC(=O)[C@H](CC(C)C)NC(=O)[C@H](Cc2ccccc2)NC(=O)[C@H](Cc2c[nH]c3ccccc23)NC(=O)[C@H](CCSC)NC(=O)[C@@H](N)CCCCNC(=O)CNC(=O)[C@H](Cc2c[nH]c3ccccc23)NC(=O)[C@H](Cc2ccccc2)NC(=O)[C@H](CO)NC1=O` [compound 26] (HELM PEPTIDE1{K.M.W.F.L.I.S.F.W.G}$PEPTIDE1,PEPTIDE1,1:R3-10:R2$$$V2.0; bridges inferred), the viability in data set [2] is 88%. The same molecule yielded an EC50 in data set [3] of 7.5 to 15 µM.
On the same counts, the results for `CC[C@H](C)[C@@H]1NC(=O)[C@H](CC(C)C)NC(=O)[C@H](Cc2ccc(O)cc2)NC(=O)[C@H](Cc2c[nH]c3ccccc23)NC(=O)[C@H](CCSC)NC(=O)[C@H](CCCNC(=N)N)NC(=O)[C@H](CO)NC(=O)[C@H](CCSC)NC(=O)[C@@H](N)CCCCNC(=O)CNC(=O)[C@H](Cc2c[nH]c3ccccc23)NC(=O)[C@H](Cc2ccccc2)NC(=O)[C@H](CO)NC1=O` [compound 27] (HELM PEPTIDE1{K.M.S.R.M.W.Y.L.I.S.F.W.G}$PEPTIDE1,PEPTIDE1,1:R3-13:R2$$$V2.0; bridges inferred) are 96% and greater than 30 µM.
For `CC[C@H](C)[C@@H]1NC(=O)[C@H](CC(C)C)NC(=O)[C@H](Cc2ccccc2)NC(=O)[C@H](Cc2c[nH]c3ccccc23)NC(=O)[C@H](CCSC)NC(=O)[C@H](CCCNC(=N)N)NC(=O)[C@H](CO)NC(=O)[C@H](CCSC)NC(=O)[C@@H](N)CCCCNC(=O)CNC(=O)[C@H](Cc2c[nH]c3ccccc23)NC(=O)[C@H](CC(C)C)NC(=O)[C@H](CO)NC1=O` [compound 28] (HELM PEPTIDE1{K.M.S.R.M.W.F.L.I.S.L.W.G}$PEPTIDE1,PEPTIDE1,1:R3-13:R2$$$V2.0; bridges inferred) the same measures were 91% and 22.5 to 30 µM.
